Patent US20110117164A1, “Use of Additive Sites to Control Nitric Oxide Release from Nitric Oxide Donors Contained within Polymers” (priority 2004, published 2011)

What was measured:
[1] = Air stability of isolated intramolecular diazeniumdiolates; type: physicochemical
Method: The reaction of NO with 1f yielded a diazeniumdiolate (as determined by UV) that was initially air-stable, but decomposed after 12 hours even with storage at −20° C. […] Thus, the most air-stable intramolecular diazeniumdiolate that could be isolated was that of diamine 1e. Air stable bis-diazeniumdiolates of 1f and 1g may, however, be prepared when an exogenous base such as sodium methoxide is present in the reaction mixture.

[2] = Thermal gravimetric analysis under nitrogen (thermal stability of diazeniumdiolates); type: physicochemical; conditions: nitrogen atmosphere
[3] = NO release from polymer films/coatings containing NO donor in PBS buffer at 37° C. by chemiluminescence; type: physicochemical; conditions: ~5 wt. % in PVC film plasticized with DOS (1:2), PBS buffer, 37° C., no KTpClPB
Method: Thermal stability of diazeniumdiolates. […] Kinetics. […] Use in Hydrophobic Systems.
In the absence of the KTpClPB, NO release decreases dramatically after approximately 1 hour. […] The decrease in NO release observed is believed to result from an increase in the pH within the organic polymer film, which decreases the decomposition rate of lipophilic diazeniumdiolates. As water diffuses into the film initiating NO release, secondary amine sites result. The secondary amine sites have a higher pKa than water and therefore deprotonate water to form hydroxide ions. The basic microdomain environment that results within the polymer, in turn, slows further decomposition of the remaining diazeniumdiolates that would generate NO. This retardation may occur as a result of the organic ammonium hydroxide microphases within the polymer, which in turn serves to stabilize the remaining diazeniumdiolates.
FT-IR were collected on Perken Elmer Spectrum VX. […] Elemental analyses were performed. Reagents. […] NO was purchased from Matheson Gases. […] General NO Addition Procedure. […] The products were finally collected and dried under vacuum. Molar Extinction Coefficients. […] The maximum wavelength and absorbance were collected. […] Kinetics Studies. […] The NO released was measured using chemiluminescence. […] Preparation of Polymer Films Containing Diazeniumdiolates. […] The membranes were covered and allowed to cure overnight. […] Polymerization to Form Boc-protected Diamine Copolymer.
General Procedure for Deprotection to Form Diamine Copolymer (c). 35 mg of the copolymer (b) was dissolved in 2 mL of dichloromethane and then 200 μL of TFA (trifluoroacetic acid) was added dropwise. The solution was stirred at room temperature for about 3 hours. The reaction mixture was diluted with 20 mL of dichloromethane, and the organic phase was then washed with sodium bicarbonate, water, and brine, and was dried with sodium sulfate. The solvent was evaporated and the resulting copolymer was dried under vacuum overnight. ^1H-NMR was performed to confirm the structure and actual composition of the copolymer. General Procedure for NO Loading to Form Polymer-Based NO Donor (d). 20 mg of the deprotected copolymer (c) was dissolved in 3 mL of dry THF and placed in a high pressure reactor with a stirring bar, and flushed with argon for about 10 minutes. 100% excess of sodium methoxide (with respect to free amine sites) was added and the reactor was closed. The reactor was purged with argon again for several times (e.g. ten times) over a 1 hour period and was charged with NO at 80 psi. The reaction mixture was stirred for 72 hours at room temperature. After the reaction was complete, the copolymer was precipitated with dry hexane under argon. The remaining solvent was removed using a vacuum, and the diazeniumdiolated copolymers (d) were examined by UV-Vis spectrum as well as NOA. This resulting copolymer was stored in sealed vials charged with argon in a freezer. Preparation of Polymer Films Containing Polymer-Based No Donor. Polymer membranes containing the polymer-based NO donor was prepared by dissolving 60.8 mg poly(vinyl chloride) (PVC), 30.4 mg dioctyl sebacate (DOS), and 9.1 mg poly(lactide-co-glycolide) (50:50) (PLGA 50:50) in 1.5 mL of freshly distilled tetrahydrofuran. […] A trilayer film configuration is employed to fabricate films. […] Four hours later the polymer cocktail was cast on top of the PVC layer. After another 4 hours, the PVC solution was cast again as a finish layer. The membrane was covered and allowed to cure overnight. Polymer films containing no additives were prepared in a similar manner. […] NO Release Measurements by Chemiluminescence. All NO measurements were performed using a Sievers Nitric Oxide Analyzer (NOA), model 280. The instrument was calibrated before each experiment using an internal two-point calibration (zero gas and 45 PPM). The flow rate was set to 200 mL/min with a cell pressure of 5.4 torr and an oxygen pressure of 6.0 psig. […]

[4] = for t1/2 ("apparent" t1/2 and t1/2): buffer, pH 7.4; for k: first order decomposition, PBS buffer, pH 7.4, 37° C., n > 3
Description: UV-vis spectra were monitored on a Beckman DU 640B spectrophotometer.

thrombus formation = conditions: dispersed in a silicone rubber matrix; cited from earlier work
platelet activity = conditions: within a polymer coating on the inner walls of extracorporeal circuits; cited from earlier work
[5] = donor and its diamine precursor; back react to potentially toxic nitrosamines; cited from earlier work
[6] = system: cells after vascular injury; conditions: cited from earlier work
[7] = in vivo; cited from earlier work

SMILES	TNO loss (stable up to) [2] [°C]	t1/2 ("apparent" t1/2 and t1/2) [4] [min]	k [4] [s⁻¹]	further results
CCCCCCN(CCCCCC)CCCCCCN [Compound 1f, N,N-dihexylhexamethylene diamine]	–	–	–	time to decomposition of the initially air-stable diazeniumdiolate ([1]; even with storage at −20° C.): 12 h
CCCCCCCCCCCCN(CCCCCCN)CCCCCCCCCCCC [Compound 1g, N,N-didodecylhexamethylene diamine]	–	–	–	air stability during work-up ([1]; presence of oxygen during the work-up procedure): immediately decomposes
CNCCCCCCN(C)/[N+]([O-])=N/O [Compound 2a, (Z)-1-[N-methyl-N-[6-(N-methylammoniohexyl)amino]]-diazen-1-ium-1,2-diolate]	104	1.12 ± 0.012	0.010 ± 0.0001	total NO release profile from film without additive [3]: releases all of its NO in a short period of time; effect on thrombus formation (thrombus formation): prevent thrombus formation on the surface of intravascular sensors; effect on platelet activity (platelet activity): greatly reduce platelet activity; leaching from polymer matrix [5]: tend to leach from the surface of the polymer matrix
CCNCCCCCCN(CC)/[N+]([O-])=N/O [Compound 2b, (Z)-1-{N-Ethyl-N-[6-(N-ethylammoniohexyl)amino]}diazen-1-ium-1,2-diolate]	104	5.78 ± 0.433	0.0020 ± 0.0001	–
CCCNCCCCCCN(CCC)/[N+]([O-])=N/O [Compound 2c, (Z)-1-{N-Propyl-N-[6-(N-propylammoniohexyl)amino]}-diazen-1-ium-1,2-diolate]	104	5.32 ± 0.383	0.0022 ± 0.0001	–
CCCCCNCCCCCCN(CCCCC)/[N+]([O-])=N/O [Compound 2e, (Z)-1-{N-Pentyl-N-[6-(N-pentylammoniohexyl)amino]}-diazen-1-ium-1,2-diolate]	104	4.65 ± 0.517	0.0025 ± 0.0001	–
NCCN(CCN)/[N+]([O-])=N/O [DETA/NO]	–	–	–	effect on cell proliferation after vascular injury [6]: substantially suppress overproliferation of cells after vascular injury
O=C([O-])C1CCCN1[N+]([O-])=N[O-].[Na+].[Na+] (centres unmarked) [PROLI/NO]	–	–	–	effect when infused into blood [7]: relieve muscle spasms
